Data reported in patent publication US20140038822A1, “USE OF SUBSTITUTED SPIROCYCLIC SULFONAMIDOCARBOXYLIC ACIDS, CARBOXYLIC ESTERS THEREOF, CARBOXAMIDES THEREOF AND CARBONITRILES THEREOF OR SALTS THEREOF FOR ENHANCEMENT OF STRESS TOLERANCE IN PLANTS” (BAYER INTELLECTUAL PROPERTY GMBH, priority 2010, published 2014).

Tests used:
Format in all cases: in vivo
BRSNS (Brassica napus) = assay: Drought stress test on crop plants in greenhouse, spray application, efficacy vs untreated stressed control (BRSNS); details: dosage 250 g/ha, mean of three results
Protocol: (§1) Seeds of monocotyledonous and dicotyledonous crop plants were placed in sandy loam in wood-fiber pots, covered with soil and cultivated in a greenhouse under good growth conditions. The test plants were treated at the early leaf stage (BBCH10 BBCH13). To ensure uniform water supply before commencement of stress, the potted plants were supplied with the maximum amount of water immediately beforehand by dam irrigation and, after application, transferred in plastic inserts in order to prevent subsequent, excessively rapid drying. The inventive compounds, formulated in the form of wettable powders (WP), wettable granules (WG), suspension concentrates (SC) or emulsion concentrates (EC), were sprayed onto the green parts of the plants as an aqueous suspension at an equivalent water application rate of […] with addition of 0.2% wetting agent (agrotin). Substance application is followed immediately by stress treatment of the plants (cold or drought stress). For cold stress treatment, the plants were kept under the following controlled conditions: […]
(§2) After the recovery phase had ended, the intensities of damage were rated in visual comparison to untreated, unstressed controls of the same age (in the case of drought stress) or the same growth stage (in the case of cold stress). The intensity of damage was first assessed as a percentage (100%=plants have died, 0%=like control plants). […]

ZEAMX (Zea mays) = assay: Drought stress test on crop plants in greenhouse, spray application, efficacy vs untreated stressed control (ZEAMX); details: dosage 250 g/ha, efficacy = percentage reduction in the intensity of damage vs untreated stressed control, mean of three results
Protocol: as §1, §2

[1] = tested on: TRZAS (Triticum aestivum); assay: Drought stress test on crop plants in greenhouse, spray application, efficacy vs untreated stressed control (TRZAS); details: dosage 25 g/ha, efficacy = percentage reduction in the intensity of damage vs untreated stressed control, mean of three results
Protocol: as §1, §2

COC(=O)C1(NS(=O)(=O)c2ccc(OC)cc2)CCC(OC)CC1 (stereo not drawn) [I.37-87, Methyl 4-methoxy-1-{[(4-methoxyphenyl)sulfonyl]amino}-cyclohexanecarboxylate]
>5%: EF (BRSNS): Efficacy = percentage reduction in the intensity of damage (BRSNS (Brassica napus)) | EF (ZEAMX) (ZEAMX (Zea mays)) | Efficacy (TRZAS) [1]
